Experimental data published in ChEMBL document CHEMBL6115036, “Exploration of membrane-active cephalosporin derivatives as potent antibacterial agents against Staphylococcus aureus biofilms and persisters” (Eur J Med Chem, 2025).
Active and inactive are the calls of the source. The rule behind the calls is not given here.

How the values were obtained:
[1] = tested on: Staphylococcus aureus; test: Antimicrobial activity against Staphylococcus aureus incubated for 16 to 18 hrs by broth dilution assay; format: functional; settings: time 16-18 hrs
[2] = tested on: Enterococcus faecalis; test: Antimicrobial activity against Enterococcus faecalis incubated for 16 to 18 hrs by broth dilution assay; format: functional; settings: time 16-18 hrs
[3] = tested on: Staphylococcus aureus; test: Induction of cytoplasmic membrane depolarization in Staphylococcus aureus assessed as increase in fluorescence intensity measured for 20 mins by DiSC3(5) dye based analysis; format: functional, organism-based
[4] = tested on: Stenotrophomonas maltophilia; test: Antimicrobial activity against Stenotrophomonas maltophilia incubated for 16 to 18 hrs by broth dilution assay; format: functional; settings: time 16-18 hrs
[5] = tested on: Escherichia coli; test: Antimicrobial activity against Escherichia coli incubated for 16 to 18 hrs by broth dilution assay; format: functional; settings: time 16-18 hrs
[6] = tested on: Staphylococcus aureus; test: Induction of inner membrane permeability in Staphylococcus aureus assessed as increase in fluorescence intensity measured for 20 mins by PI dye based analysis; format: functional, organism-based
[7] = tested on: Staphylococcus aureus; test: Induction of resistance development in norfloxacin-resistant Staphylococcus aureus assessed as fold increase in MIC at sub-MIC measured after 20 passages relative to control; format: functional
[8] = tested on: Staphylococcus aureus; test: Induction of cytoplasmic membrane depolarization in Staphylococcus aureus assessed as increase in fluorescence intensity at 32 ug/ml measured for 20 mins by DiSC3(5) dye based analysis; format: functional, organism-based; settings: dose 32.0 µg/ml
[9] = tested on: Staphylococcus aureus; test: Induction of inner membrane permeability in Staphylococcus aureus assessed as increase in fluorescence intensity at 32 ug/ml measured for 20 mins by PI dye based analysis; format: functional, organism-based; settings: dose 32.0 µg/ml
[10] = tested on: Staphylococcus aureus; test: Disruption of cell membrane in Staphylococcus aureus assessed as protein leakage at 32 ug/ml measured after 2 hrs by fluorescence based analysis; format: functional, organism-based; settings: dose 32.0 µg/ml
[11] = tested on: Staphylococcus aureus; test: Disruption of cell membrane in Staphylococcus aureus assessed as nucleic acid leakage at 32 ug/ml measured after 2 hrs by fluorescence based analysis; format: functional, organism-based; settings: dose 32.0 µg/ml
[12] = Hemolytic activity in sheep red blood cells incubated for 1 hr; format: toxicity, cell-based, Ovis aries, Erythrocyte
[13] = tested on: Staphylococcus aureus; test: Antibacterial activity against rifampicin-induced persistant Staphylococcus aureus assessed as decrease in CFU at 100 times MIC measured for 10 hrs; format: functional, organism-based
[14] = tested on: Staphylococcus aureus; test: Induction of cytoplasmic membrane depolarization in Staphylococcus aureus assessed as increase in fluorescence intensity at 16 ug/ml measured for 20 mins by DiSC3(5) dye based analysis; format: functional, organism-based; settings: dose 16.0 µg/ml
[15] = tested on: Staphylococcus aureus; test: Induction of inner membrane permeability in Staphylococcus aureus assessed as increase in fluorescence intensity at 16 ug/ml measured for 20 mins by PI dye based analysis; format: functional, organism-based; settings: dose 16.0 µg/ml

MIC [1] [µg/mL]	MIC [2] [µg/mL]	MIC [4] [µg/mL]	MIC [5] [µg/mL]	SMILES	Activity [3]	Activity [6]	further results
–	–	–	–	CC(=O)NC[C@H]1CN(c2ccc(N3CCOCC3)c(F)c2)C(=O)O1 [LINEZOLID]	–	–	fold change (FC) [7]: 4
–	–	–	–	C[C@H]1COc2c(N3CCN(C)CC3)c(F)cc3c(=O)c(C(=O)O)cn1c23 [LEVOFLOXACIN ANHYDROUS]	–	–	fold change (FC) [7]: 16
> 128	> 128	> 128	> 128	CCCCCCCC[n+]1ccc(C(=O)N[C@@H]2C(=O)N3C(C(=O)O)=C(COC(C)=O)CS[C@H]23)cc1.[I-]	inactive	inactive	–
64	128	> 128	> 128	CCCCCC[n+]1ccc(C(=O)N[C@@H]2C(=O)N3C(C(=O)OC(c4ccccc4)c4ccccc4)=C(COC(C)=O)CS[C@H]23)cc1.[I-]	Active	Active	–
> 128	> 128	> 128	> 128	CCCCCC[n+]1ccc(C(=O)N[C@@H]2C(=O)N3C(C(=O)O)=C(COC(C)=O)CS[C@H]23)cc1.[I-]	inactive	inactive	–
2	2	32	32	CCCCCCCCCC[n+]1ccc(C(=O)N[C@@H]2C(=O)N3C(C(=O)OC(c4ccccc4)c4ccccc4)=C(COC(C)=O)CS[C@H]23)cc1.[I-]	Active	Active	–
–	–	–	–	CO[C@H]1/C=C/O[C@@]2(C)Oc3c(C)c(O)c4c(O)c(c(/C=N/N5CCN(C)CC5)c(O)c4c3C2=O)NC(=O)/C(C)=C\C=C\[C@H](C)[C@H](O)[C@@H](C)[C@@H](O)[C@@H](C)[C@H](OC(C)=O)[C@@H]1C	–	–	Activity [13]: inactive
0.5	16	> 128	> 128	CCCCCCCCCCCCNC(=O)c1ccc[n+](CC2=C(C(=O)O)N3C(=O)[C@@H](NC(=O)Cc4ccccc4)[C@H]3SC2)c1.[I-]	–	–	Activity [14]: inactive; Activity [15]: inactive; HC50 at 1 h [12]: 291 µg/mL

SMILES	MIC [1] [µg/mL]	MIC [2] [µg/mL]	MIC [4] [µg/mL]	MIC [5] [µg/mL]	Activity [3]	Activity [6]	further results
CCCCCCCC[n+]1ccc(SCC2=C(C(=O)OCc3ccc(OC)cc3)N3C(=O)[C@@H](NC(=O)Cc4ccccc4)[C@H]3SC2)cc1.O=C([O-])C(F)(F)F	0.063	8	128	64	Active	Active	–
CCCCCCCCCCCC[n+]1ccc(-c2cc[n+](CC3=C(C(=O)[O-])N4C(=O)[C@@H](NC(=O)Cc5ccccc5)[C@H]4SC3)cc2)cc1.O=C([O-])C(F)(F)F	0.25	4	> 128	128	–	–	Activity [8]: Active; Activity [9]: Active; Activity [10]: inactive; Activity [11]: inactive; HC50 at 1 h [12]: 333 µg/mL
